Experiments:
Test in all cases: relative viability (nuclei count vs DMSO), 5 days (fraction); higher = more cells survive
Elesclomol = compound: CN(NC(=O)CC(=O)NN(C)C(=S)c1ccccc1)C(=S)c1ccccc1 [Elesclomol]
Outline: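 Viability was defined as treated-well nuclei divided by vehicle-well nuclei, with the median taken over replicate plates. Cells from lung cancer lines sat overnight at 37 °C in 1536-well plates, received five √10-spaced library-drug doses by pinning on vehicle-anchored plates, and grew 5 days without medium change before one-step fixation, permeabilisation and Hoechst staining, 4× imaging and MetaXpress nuclear counts. Only plates with control CV under 25% and at least one doubling were kept.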

Elesclomol + Navitoclax = compound: CN(NC(=O)CC(=O)NN(C)C(=S)c1ccccc1)C(=S)c1ccccc1 [Elesclomol] + CC1(C)CCC(c2ccc(Cl)cc2)=C(CN2CCN(c3ccc(C(=O)NS(=O)(=O)c4ccc(N[C@H](CCN5CCOCC5)CSc5ccccc5)c(S(=O)(=O)C(F)(F)F)c4)cc3)CC2)C1 [Navitoclax] (partner 0.5 µM)
Outline: (§1)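 Relative viability divides the nuclei count in treated wells by that in vehicle wells. Lung cancer cell lines were seeded in 1536-well plates, dosed by pin tool the next day, and fixed and stained after 5 days in one step with final 0.05% Triton X-100, 1% formaldehyde and 1 ug/ml Hoechst. Dosing was a single drug or a fixed anchor-drug dose plus five library-drug doses (not always all listed) in √10 steps, and values are medians of duplicate plates imaged at 4×.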

Elesclomol + OSI-027 = compound: CN(NC(=O)CC(=O)NN(C)C(=S)c1ccccc1)C(=S)c1ccccc1 [Elesclomol] + COc1cccc2cc(-c3nc([C@H]4CC[C@H](C(=O)O)CC4)n4ncnc(N)c34)[nH]c12 [OSI-027] (partner 0.5 µM)
Outline: as §1

Elesclomol + Decitabine = compound: CN(NC(=O)CC(=O)NN(C)C(=S)c1ccccc1)C(=S)c1ccccc1 [Elesclomol] + Nc1ncn([C@H]2C[C@H](O)[C@@H](CO)O2)c(=O)n1 [Decitabine] (partner 2 µM)
Outline: as §1

Elesclomol + Pictilisib = compound: CN(NC(=O)CC(=O)NN(C)C(=S)c1ccccc1)C(=S)c1ccccc1 [Elesclomol] + CS(=O)(=O)N1CCN(Cc2cc3nc(-c4cccc5[nH]ncc45)nc(N4CCOCC4)c3s2)CC1 [Pictilisib] (partner 1 µM)
Outline: as §1

Cell Line	relative viability (Elesclomol; 0.003162 µM)	relative viability (Elesclomol; 0.01 µM)	relative viability (Elesclomol; 0.03162 µM)	relative viability (Elesclomol; 0.1 µM)	relative viability (Elesclomol + Navitoclax; first compound 0.003162 µM)	relative viability (Elesclomol + Navitoclax; first compound 0.03162 µM)	relative viability (Elesclomol + Navitoclax; first compound 0.1 µM)	relative viability (Elesclomol + OSI-027; first compound 0.003162 µM)	relative viability (Elesclomol + OSI-027; first compound 0.01 µM)	relative viability (Elesclomol + OSI-027; first compound 0.03162 µM)	relative viability (Elesclomol + OSI-027; first compound 0.1 µM)	relative viability (Elesclomol + Decitabine; first compound 0.003162 µM)	relative viability (Elesclomol + Decitabine; first compound 0.01 µM)	relative viability (Elesclomol + Decitabine; first compound 0.03162 µM)	relative viability (Elesclomol + Decitabine; first compound 0.1 µM)	relative viability (Elesclomol + Pictilisib; first compound 0.003162 µM)	relative viability (Elesclomol + Pictilisib; first compound 0.03162 µM)	relative viability (Elesclomol + Pictilisib; first compound 0.1 µM)	relative viability (Elesclomol + Navitoclax; first compound 0.01 µM)	relative viability (Elesclomol + Pictilisib; first compound 0.01 µM)
NCI-H23	1	0.566	0.786	0.128	0.799	0.761	0.144	0.66	0.298	0.601	0.312	0.338	0.338	0.213	0.147	0.536	0.366	0.147		
NCI-H322M	0.893	0.29	0.363	0.266	1.27	1.06	0.858	0.565	0.328	0.268	0.116	0.608	0.511	0.402	0.29	0.478	0.519	0.382		
NCI-H441	1.06	0.945	0.55	0.179	0.712	0.253	0.103	0.563	0.37	0.327	0.103	0.22	0.209	0.216	0.127	0.424	0.183	0.0824	0.469	0.364
NCI-H460	1.01	0.825	0.557	0.0845	0.997	0.0164	0.0095	0.619	0.276	0.101	0.0137	0.433	0.396	0.107	0.0381	0.361	0.309	0.259	0.379	0.291
NCI-H520	1.03	0.87	0.584	0.134	1.08	0.587	0.162	0.23	0.293	0.224	0.14	0.526	0.411	0.313	0.143	0.255	0.22	0.132	0.939	0.279
NCI-H596	0.983	0.842	0.865	0.243	0.912	0.877	0.189	0.8	0.694	0.757	0.206	1.03	0.903	0.664	0.241	0.374	0.346	0.218	0.941	0.341
NCI-H647	1	0.617	0.377	0.062	1.05	0.191	0.0372	0.603	0.368	0.161	0.203	0.355	0.293	0.259	0.0841	0.492	0.204	0.0838	0.665	0.168
NCI-H727	1.04	0.699	0.494	0.301	0.368	0.109	0.0643	0.641	0.426	0.394	0.251	0.98	0.836	0.847	0.528	0.331	0.158	0.0437	0.213	0.226

From the supplement of paper PMC10307832
